Test system: A. baumannii KW1 strains with β-lactamase plasmids
Experiment: Etest MIC of β-lactams, extended-spectrum β-lactamase, AmpC β-lactamase or carbapenemase (Table 18)
Format: cell-based, Acinetobacter baumannii
Description: DNA fragments of the resistance genes along with their flanking regions were amplified from clinical plasmids via PCR with specific primer pairs. The resulting PCR fragments were digested and then cloned into the plasmid pYMAb5 or pYMAb5Tc. The resulting plasmids were then transformed into A. baumannii KW1 via electroporation.
The MICs of antibiotics were determined using the Etest (Biodisk AB, Sweden) according to the manufacturer's instructions. The MICs from the Etest, which fall between standard two-fold dilutions, were rounded up to the next highest two-fold value. The MICs of ceftazidime and cefotaxime against K. pneumoniae NVT1001 harbouring the pACYC177 plasmid with blaOXA-48 were further determined using a broth microdilution test according to the recommendations of the CLSI,^25 and the results were interpreted according to the breakpoints established by the CLSI in 2017.^25 Meanwhile, due to the lack of CLSI breakpoints in 2016 and 2017, the results for cephalothin were interpreted according to the breakpoints established by the CLSI in 2015,^26 and the results for moxifloxacin were interpreted according to the breakpoints established by the EUCAST in 2017.^27

SMILES	MIC (KW1, no supplemental plasmid) [µg/mL]	MIC (KW1 with ADC-30 on pYMAb5) [µg/mL]	MIC (KW1 with CTX-M-15 on pYMAb5) [µg/mL]	MIC (KW1 with IMP-1 on pYMAb5) [µg/mL]	MIC (KW1 with NDM-1 on pYMAb5) [µg/mL]	MIC (KW1 with OXA-23 on pYMAb5) [µg/mL]	MIC (KW1 with OXA-58 on pYMAb5) [µg/mL]	MIC (KW1 with OXA-66 on pYMAb5) [µg/mL]	MIC (KW1 with OXA-72 on pYMAb5) [µg/mL]	MIC (KW1 with VEB-3 on pYMAb5) [µg/mL]	MIC (KW1 with VIM-1 on pYMAb5) [µg/mL]	MIC (KW1 with shuttle vector pYMAb5) [µg/mL]
C[C@H]1[C@H](NC(=O)/C(=N\OC(C)(C)C(=O)O)c2csc(N)n2)C(=O)N1S(=O)(=O)O [ATM]	16	64	>256	16	12	16	16	12	16	>256	12	12
C[C@@H](O)[C@H]1C(=O)N2C(C(=O)O)=C(S[C@@H]3CN[C@H](C(=O)N(C)C)C3)[C@H](C)[C@H]12 [MP]	0.5	3	2	12	>32	>32	6	8	>32	0.5	>32	0.5
CCN1CCN(C(=O)N[C@@H](C(=O)N[C@@H]2C(=O)N3[C@@H]2SC(C)(C)[C@@H]3C(=O)O)c2ccccc2)C(=O)C1=O [PP]	12	>256	>256	16	>256	>256	128	64	>256	12	>256	12
